From patent publication US9790213B2, “Imidazoles for the treatment and prophylaxis of respiratory syncytial virus infection” (Hoffmann-La Roche Inc., priority 2015, dated 2017)

Tested on: RSV Long strain (ATCC VR-26)
Test: Viral cytopathic effect (CPE) assay
Format: cell-based
Conditions: human respiratory syncytial virus, 120 h, cell viability after 5 days (Cell Counting kit-8)
Procedure: EC50: the concentration of a compound where 50% of its maximal protection effect against viral induced CPE is observed LongStrain: a subtype RSV strain obtained from ATCC with catalog number VR-26 To measure anti-RSV activity of compounds, 96-well plates were seeded with 6×10^3 cells per well in Dulbecco's modified Eagle's medium (DMEM) containing 10% fetal bovine serum (FBS). Cells were infected the next day with sufficient RSV Long strain (ATCC) to produce an approximately 80-90% cytopathic effect after 5 days, in the presence of serial half-log diluted compound in a total volume of 200 μL per well. The viability of cells is assessed after 5 days using Cell Counting kit-8 (Dojindo Molecular Technologies). The absorbance at 450 nm and referenced at 630 nm is measured to determine 50% effective concentration (EC50).

Row | Compound | EC50
1 | COC(=O)c1ccc(-c2noc(-c3nc(C)n(-c4ccccc4Cl)c3C)n2)cc1 [Example 1-4, 4-{5-[1-(2-Chloro-phenyl)-2,5-dimethyl-1H-imidazol-4-yl]-[1,2,4]oxadiazol-3-yl}-benzoic acid methyl ester] | 4.06 µM
2 | COc1ccc(-c2noc(-c3ncn(-c4c(C)cccc4C)c3C)n2)cc1 [Example 1-10, 5-(1-(2,6-Dimethylphenyl)-5-methyl-1H-imidazol-4-yl)-3-(4-methoxyphenyl)-1,2,4-oxadiazol] | 2.4 µM
3 | COc1ccc(-c2noc(-c3nc(C)n(-c4ccccc4Cl)c3C)n2)cc1 [Example 1-11, 5-[1-(2-Chloro-phenyl)-2,5-dimethyl-1H-imidazol-4-yl]-3-(4-methoxy-phenyl)-[1,2,4]oxadiazole] | 5.07 µM
4 | COC(=O)c1ccc(-c2noc(-c3nc(C)n(-c4ccccc4Cl)c3C)n2)cc1OC [Example 1-13, 4-{5-[1-(2-Chloro-phenyl)-2,5-dimethyl-1H-imidazol-4-yl]-[1,2,4]oxadiazol-3-yl}-2-methoxy-benzoic acid methyl ester] | 2.38 µM
5 | COc1ccc(-c2noc(-c3ncn(-c4c(C)cccc4Cl)c3C)n2)cc1 [Example 1-15, 5-[1-(2-Chloro-6-methyl-phenyl)-5-methyl-1H-imidazol-4-yl]-3-(4-methoxy-phenyl)-[1,2,4]oxadiazole] | 1.74 µM
6 | COc1ccc(-c2noc(-c3nc(C)n(-c4ccccc4Cl)c3C)n2)c(OC)c1 [Example 1-16, 5-[1-(2-Chloro-phenyl)-2,5-dimethyl-1H-imidazol-4-yl]-3-(2,4-dimethoxy-phenyl)-[1,2,4]oxadiazole] | 1.47 µM
7 | COc1ccc(OC)c(-c2noc(-c3nc(C)n(-c4ccccc4Cl)c3C)n2)c1 [Example 1-17, 5-(1-(2-chlorophenyl)-2,5-dimethyl-1H-imidazol-4-yl)-3-(2,5-dimethoxy-phenyl)-1,2,4-oxadiazole] | 1.81 µM
8 | COc1cc(-c2noc(-c3nc(C)n(-c4ccccc4Cl)c3C)n2)cc(OC)c1OC [Example 1-18, 5-[1-(2-Chloro-phenyl)-2,5-dimethyl-1H-imidazol-4-yl]-3-(3,4,5-trimethoxy-phenyl)-[1,2,4]oxadiazole] | 1.59 µM
9 | COC(=O)c1ccc(-c2noc(-c3nc(C)n(-c4ccccc4Cl)c3C)n2)c(OC)c1 [Example 1-19, 4-{5-[1-(2-Chloro-phenyl)-2,5-dimethyl-1H-imidazol-4-yl]-[1,2,4]oxadiazol-3-yl}-3-methoxy-benzoic acid methyl ester] | 0.92 µM
10 | COc1ccc(-c2noc(-c3nc(C)n(-c4ccccc4Cl)c3C)n2)c(F)c1 [Example 1-20, 5-[1-(2-Chloro-phenyl)-2,5-dimethyl-1H-imidazol-4-yl]-3-(2-fluoro-4-methoxy-phenyl)-[1,2,4]oxadiazole] | 2.99 µM
11 | COC(=O)c1ccc(-c2noc(-c3nc(C)n(-c4ccccc4Cl)c3C)n2)cc1C [Example 1-21, 4-{5-[1-(2-Chloro-phenyl)-2,5-dimethyl-1H-imidazol-4-yl]-[1,2,4]oxadiazol-3-yl}-2-methyl-benzoic acid methyl ester] | 5.31 µM
12 | COc1cccc(-c2noc(-c3nc(C)n(-c4ccccc4Cl)c3C)n2)c1 [Example 1-22, 5-[1-(2-Chloro-phenyl)-2,5-dimethyl-1H-imidazol-4-yl]-3-(3-methoxy-phenyl)-[1,2,4]oxadiazole] | 5.96 µM
13 | COc1ccccc1-n1c(C)nc(-c2nc(-c3cc(OC)c(OC)c(OC)c3)no2)c1C [Example 1-23, 5-[1-(2-Methoxy-phenyl)-2,5-dimethyl-1H-imidazol-4-yl]-3-(3,4,5-trimethoxy-phenyl)-[1,2,4]oxadiazole] | 2.08 µM
14 | COc1cc(-c2noc(-c3ncc(-c4ccccc4Cl)n3C)n2)cc(OC)c1OC [Example 1-25, 5-[5-(2-Chlorophenyl)-1-methyl-imidazol-2-yl]-3-(3,4,5-trimethoxyphenyl)-1,2,4-oxadiazole] | 1.28 µM
15 | COc1cc(-c2noc(-c3cnc(-c4ccccc4Cl)n3C)n2)cc(OC)c1OC [Example 1-26, 5-[2-(2-Chlorophenyl)-3-methyl-imidazol-4-yl]-3-(3,4,5-trimethoxyphenyl)-1,2,4-oxadiazole] | 2.03 µM
16 | COc1cc(C(=O)O)ccc1-c1noc(-c2ncn(-c3c(C)cccc3Cl)c2C)n1 [Example 2-1, 4-[5-[1-(2-Chloro-6-methyl-phenyl)-5-methyl-imidazol-4-yl]-1,2,4-oxadiazol-3-yl]-3-methoxy-benzoic acid] | 1.85 µM
17 | Cc1nc(-c2nc(-c3ccc(C(=O)O)cc3)no2)c(C)n1-c1ccccc1Cl [Example 2-2, 4-{5-[1-(2-Chloro-phenyl)-2,5-dimethyl-1H-imidazol-4-yl]-[1,2,4]oxadiazol-3-yl}-benzoic acid] | 3.08 µM
18 | COc1cc(C(=O)O)ccc1-c1noc(-c2ncn(-c3c(C)cccc3C)c2C)n1 [Example 2-3, 4-{5-[1-(2,6-Dimethyl-phenyl)-5-methyl-1H-imidazol-4-yl]-[1,2,4]oxadiazol-3-yl}-3-methoxy-benzoic acid] | 1.97 µM
19 | COc1cc(-c2noc(-c3nc(CO)n(-c4ccccc4Cl)c3C)n2)cc(OC)c1OC [Example 3-1, (1-(2-Chlorophenyl)-5-methyl-4-(3-(3,4,5-trimethoxyphenyl)-1,2,4-oxadiazol-5-yl)-1H-imidazol-2-yl)methanol] | 1.79 µM
20 | COc1cc(-c2noc(-c3nc(C(=O)O)n(-c4ccccc4Cl)c3C)n2)cc(OC)c1OC [Example 3-2, 1-(2-Chlorophenyl)-5-methyl-4-(3-(3,4,5-trimethoxyphenyl)-1,2,4-oxadiazol-5-yl)-1H-imidazole-2-carboxylic acid] | 4.05 µM

Other lines, results leading:

Row | EC50 | Compound
21 | 0.78 µM | COc1cc(-c2noc(-c3cn(-c4ccccc4Br)c(C)n3)n2)cc(OC)c1OC [Example 1-1, 5-(1-(2-Bromophenyl)-2-methyl-1H-imidazol-4-yl)-3-(3,4,5-trimethoxyphenyl)-1,2,4-oxadiazole]
22 | 0.6 µM | COc1cc(-c2noc(-c3ncn(-c4ccccc4Br)c3C)n2)cc(OC)c1OC [Example 1-2, 5-[1-(2-Bromo-phenyl)-5-methyl-1H-imidazol-4-yl]-3-(3,4,5-trimethoxy-phenyl)-[1,2,4]oxadiazole]
23 | 0.5 µM | COc1cc(-c2noc(-c3nc(C)n(-c4ccccc4Br)c3C)n2)cc(OC)c1OC [Example 1-3, 5-(1-(2-Bromophenyl)-2,5-dimethyl-1H-imidazol-4-yl)-3-(3,4,5-trimethoxyphenyl)-1,2,4-oxadiazole]
24 | 0.51 µM | COc1cc(-c2noc(-c3ncn(-c4c(C)cccc4C)c3C)n2)cc(OC)c1OC [Example 1-6, 5-(1-(2,6-Dimethylphenyl)-5-methyl-1H-imidazol-4-yl)-3-(3,4,5-trimethoxyphenyl)-1,2,4-oxadiazole]
25 | 0.68 µM | COc1ccc(OC)c(-c2noc(-c3nc(C)n(-c4ccccc4Br)c3C)n2)c1 [Example 1-7, 5-[1-(2-Bromo-phenyl)-2,5-dimethyl-1H-imidazol-4-yl]-3-(2,5-dimethoxy-phenyl)-[1,2,4]oxadiazole]
26 | 0.193 µM | COc1ccc(-c2noc(-c3ncn(-c4c(C)cccc4Cl)c3C)n2)c(OC)c1 [Example 1-8, 5-[1-(2-Chloro-6-methyl-phenyl)-5-dimethyl-1H-imidazol-4-yl]-3-(2,4-dimethoxy-phenyl)-[1,2,4]oxadiazole]
27 | 0.22 µM | COc1cc(-c2noc(-c3ncn(-c4c(C)cccc4Cl)c3C)n2)cc(OC)c1OC [Example 1-9, 5-[1-(2-Chloro-6-methyl-phenyl)-5-methyl-imidazol-4-yl]-3-(3,4,5-trimethoxyphenyl)-1,2,4-oxadiazole]
28 | 0.362 µM | COc1ccc(-c2noc(-c3ncn(-c4c(C)cccc4C)c3C)n2)c(OC)c1 [Example 1-12, 3-(2,4-Dimethoxy-phenyl)-5-[1-(2,6-dimethyl-phenyl)-5-methyl-1H-imidazol-4-yl]-[1,2,4]oxadiazole]
29 | 0.68 µM | COc1ccccc1-c1noc(-c2nc(C)n(-c3ccccc3Cl)c2C)n1 [Example 1-14, 5-[1-(2-Chloro-phenyl)-2,5-dimethyl-1H-imidazol-4-yl]-3-(2-methoxy-phenyl)-[1,2,4]oxadiazole]
30 | 0.78 µM | COc1cc(-c2noc(-c3nc(Br)n(-c4ccccc4Cl)c3C)n2)cc(OC)c1OC [Example 1-24, 5-[2-Bromo-1-(2-chloro-phenyl)-5-methyl-1H-imidazol-4-yl]-3-(3,4,5-trimethoxy-phenyl)-[1,2,4]oxadiazole]
31 | 0.76 µM | COc1cc(-c2noc(-c3ncn(-c4c(C)cccc4C)c3C)n2)ccc1C(=O)O [Example 2-4, 4-{5-[1-(2,6-Dimethyl-phenyl)-5-methyl-1H-imidazol-4-yl]-[1,2,4]oxadiazol-3-yl}-2-methoxy-benzoic acid]
32 | 0.59 µM | COc1cc(-c2noc(-c3ncn(-c4c(C)cccc4Cl)c3C)n2)ccc1C(=O)O [Example 2-5, 4-{5-[1-(2-Chloro-6-methyl-phenyl)-5-methyl-1H-imidazol-4-yl]-[1,2,4]oxadiazol-3-yl}-2-methoxy-benzoic acid]

Tested on: RSV
Test: not given
Conditions: two separate Phase III clinical trials, selected high-risk infants, prophylactic use; cited from earlier work

Row | Compound | reduction in hospitalization rate
33 | palivizumab: palivizumab (Synagis, MedImmune), approved for prophylactic use in selected high-risk infants | 45-55%
